Legend:
[1] = test system: caterpillars of the owlet moth (Spodoptera exigua); assay: Spodoptera exigua Test; type: in vivo; settings: active compound concentration of 0.0008%; after 6 days; dipped cabbage leaves (Brassica oleracea)
Procedure: Solvent: 7 parts by weight of dimethylformamide
Emulsifier: 1 part by weight of alkylaryl polyglycol ether
After the desired period of time, the kill in % is determined. 100% means that all caterpillars have been killed; 0% means that none of the caterpillars have been killed.

[2] = logP determination by HPLC (EEC Directive 79/831 Annex V. A8); type: physicochemical; settings: pH 2; pH2; HPLC gradient method, acetonitrile/0.1% strength aqueous phosphoric acid
Procedure: [logP=The logP values were determined in accordance with EEC Directive 79/831 Annex V. A8 by HPLC (gradient method, acetonitrile/0.1% strength aqueous phosphoric acid]

Q: Which kill in % [1] does the source give for `CCc1nccc(N(C(=O)Cc2ccc(Oc3ccc(C(N)=S)cc3)cc2)C(=O)OC(C)C)c1Cl` [Preparation Example 1, N-(3-chloro-2-ethyl-pyridin-4-yl)-N-isopropoxycarbonyl-4-(4-aminothiocarbonylphenoxy)-phenylacetamide] here?
A: Its kill in % is 100%.

Q: What about the chromatographic logP [2] of the same compound?
A: Its chromatographic logP is 3.71.

— US6335325B1, “Acylated 4-aminopyridine derivatives as pesticides and fungicides” (Bayer Aktiengesellschaft, priority 1997, dated 2002)
